Counter-ions that a name gives are not always drawn.
System: NCIH929.1 cells
Assay: Cell viability assay for Table 2 (CellTiter-Glo 2.0, ATP quantification, 96 hr)
Format: cell-based
Conditions: 96 h, NCIH929.1 cell viability, 96 hr, top concentration 1 μM, 14 points half log titration; read-out: IC50
Description: Cell Viability Assay for Table 2
CellTiter-Glo® 2.0 Assay was purchased from Promega (Madison, Wis., USA). NCIH929.1 cell line was purchased from ATCC (Manassas, Va., USA). Cell culture flasks and 384-well microplates were acquired from VWR (Radnor, Pa., USA).

**Q.** For `O=C1CCC(N2C(=O)c3cccc4c(Cc5cnn(C6CCN(CC7(F)CC7)CC6)c5)ccc2c34)C(=O)N1` (stereo not drawn) [Compound 65, 3-(6-((1-(1-((1-fluorocyclopropyl)methyl)piperidin-4-yl)-1H-pyrazol-4-yl)methyl)-2-oxobenzo[cd]indol-1(2H)-yl)piperidine-2,6-dione], which IC50 is on record?
**A.** < 1 nM

**Q.** With `COC1(CN2CCC(n3cc(Cc4ccc5c6c(cccc46)C(=O)N5C4CCC(=O)NC4=O)cn3)CC2)CC1` (stereo not drawn) [Compound 66, 3-(6-((1-(1-((1-methoxycyclopropyl)methyl)piperidin-4-yl)-1H-pyrazol-4-yl)methyl)-2-oxobenzo[cd]indol-1(2H)-yl)piperidine-2,6-dione] as the compound, how does the IC50 read?
**A.** < 1 nM

**Q.** How did the IC50 turn out when `CC1(n2cc(Cc3ccc4c5c(cccc35)C(=O)N4C3CCC(=O)NC3=O)cn2)CCNCC1` (stereo not drawn) [Compound 69, 3-(6-((1-(4-methylpiperidin-4-yl)-1H-pyrazol-4-yl)methyl)-2-oxobenzo[cd]indol-1(2H)-yl)piperidine-2,6-dione hydrochloride] was run?
**A.** < 100 nM

**Q.** `CC1(n2cc(Cc3ccc4c5c(cccc35)C(=O)N4C3CCC(=O)NC3=O)cn2)CCN(C(=O)C23C4C5C6C4C2C6C53)CC1` (stereo not drawn) [Compound 70, 3-(6-((1-(l-(cubane-1-carbonyl)-4-methylpiperidin-4-yl)-1H-pyrazol-4-yl)methyl)-2-oxobenzo[cd]indol-1(2H)-yl)piperidine-2,6-dione] was tested. Which IC50 did it give?
**A.** < 1 nM

**Q.** Which IC50 does the source give for `CC1(n2cc(Cc3ccc4c5c(cccc35)C(=O)N4C3CCC(=O)NC3=O)cn2)CCN(C(=O)C23COC(C2)C3)CC1` (stereo not drawn) [Compound 71, 3-(6-{1-[4-Methyl-1-(2-oxa-bicyclo[2.1.1]hexane-4-carbonyl)-piperidin-4-yl]-1H-pyrazol-4-ylmethyl}-2-oxo-2H-benzo[cd]indol-1-yl)-piperidine-2,6-dione] here?
**A.** < 1 nM

**Q.** With `CC1(n2cc(Cc3ccc4c5c(cccc35)C(=O)N4C3CCC(=O)NC3=O)cn2)CCN(C(=O)C2(C#N)CCCCC2)CC1` (stereo not drawn) [Compound 72, 1-(4-(4-((1-(2,6-dioxopiperidin-3-yl)-2-oxo-1,2-dihydrobenzo[cd]indol-6-yl)methyl)-1H-pyrazol-1-yl)-4-methylpiperidine-1-carbonyl)cyclohexane-1-carbonitrile] as the compound, how does the IC50 read?
**A.** < 1 nM

**Q.** With `CC1(n2cc(Cc3ccc4c5c(cccc35)C(=O)N4C3CCC(=O)NC3=O)cn2)CCN(C(=O)C23CCN(CC2)CC3)CC1` (stereo not drawn) [Compound 73, 3-(6-((l-(4-methyl-1-(quinuclidine-4-carbonyl)piperidin-4-yl)-1H-pyrazol-4-yl)methyl)-2-oxobenzo[cd]indol-1(2H)-yl)piperidine-2,6-dione] as the compound, how does the IC50 read?
**A.** < 100 nM

**Q.** How did the IC50 turn out when `CC1(n2cc(Cc3ccc4c5c(cccc35)C(=O)N4C3CCC(=O)NC3=O)cn2)CCN(C(=O)C23CCN(CC2)C3)CC1` (stereo not drawn) [Compound 74, 3-(6-((1-(1-(1-azabicydo[2.2.1]heptane-4-carbonyl)-4-methylpiperidin-4-yl)-1H-pyrazol-4-yl)methyl)-2-oxobenzo[cd]indol-1(2H)-yl)piperidine-2,6-dione] was run?
**A.** < 100 nM

**Q.** `CC(=O)N1CCC(C)(n2cc(Cc3ccc4c5c(cccc35)C(=O)N4C3CCC(=O)NC3=O)cn2)CC1` (stereo not drawn) [Compound 75, 3-(6-((1-(1-acetyl-4-methylpiperidin-4-yl)-1H-pyrazol-4-yl)methyl)-2-oxobenzo[cd]indol-1(2H)-yl)piperidine-2,6-dione] was tested. Which IC50 did it give?
**A.** < 1 nM

**Q.** `CC1(n2cc(Cc3ccc4c5c(cccc35)C(=O)N4C3CCC(=O)NC3=O)cn2)CCN(C(=O)C2(C(F)F)CC2)CC1` (stereo not drawn) [Compound 76, 3-(6-((1-(1-(1-(difluoromethyl)cyclopropane-1-carbonyl)-4-methylpiperidin-4-yl)-1H-pyrazol-4-yl)methyl)-2-oxobenzo[cd]indol-1(2H)-yl)piperidine-2,6-dione] was tested. Which IC50 did it give?
**A.** < 1 nM

**Q.** `CC1(n2cc(Cc3ccc4c5c(cccc35)C(=O)N4C3CCC(=O)NC3=O)cn2)CCN(C(=O)C2(C(F)(F)F)CC2)CC1` (stereo not drawn) [Compound 77, 3-(6-((1-(4-methyl-1-(1-(trifluoromethyl)cyclopropane-1-carbonyl)piperidin-4-yl)-1H-pyrazol-4-yl)methyl)-2-oxobenzo[cd]indol-1(2H)-yl)piperidine-2,6-dione] was tested. Which IC50 did it give?
**A.** < 1 nM

**Q.** With `CC1(n2cc(Cc3ccc4c5c(cccc35)C(=O)N4C3CCC(=O)NC3=O)cn2)CCN(C(=O)C2(C(F)(F)F)CCC2)CC1` (stereo not drawn) [Compound 78, 3-(6-((1-(4-methyl-1-(1-(trifluoromethyl)cyclobutane-1-carbonyl)piperidin-4-yl)-1H-pyrazol-4-yl)methyl)-2-oxobenzo[cd]indol-1(2H)-yl)piperidine-2,6-dione] as the compound, how does the IC50 read?
**A.** < 1 nM

**Q.** With `CC1(n2cc(Cc3ccc4c5c(cccc35)C(=O)N4C3CCC(=O)NC3=O)cn2)CCN(C(=O)C2(C#N)CC2)CC1` (stereo not drawn) [Compound 79, 1-(4-(4-((1-(2,6-dioxopiperidin-3-yl)-2-oxo-1,2-dihydrobenzo[cd]indol-6-yl)methyl)-1H-pyrazol-1-yl)-4-methylpiperidine-1-carbonyl)cyclopropane-1-carbonitrile] as the compound, how does the IC50 read?
**A.** < 1 nM

**Q.** How did the IC50 turn out when `CC(C)(C#N)C(=O)N1CCC(C)(n2cc(Cc3ccc4c5c(cccc35)C(=O)N4C3CCC(=O)NC3=O)cn2)CC1` (stereo not drawn) [Compound 80, 3-(4-(4-((1-(2,6-dioxopiperidin-3-yl)-2-oxo-1,2-dihydrobenzo[cd]indol-6-yl)methyl)-1H-pyrazol-1-yl)-4-methylpiperidin-1-yl)-2,2-dimethyl-3-oxopropanenitrile] was run?
**A.** < 1 nM

**Q.** Which IC50 does the source give for `CC1(C(=O)N2CCC(C)(n3cc(Cc4ccc5c6c(cccc46)C(=O)N5C4CCC(=O)NC4=O)cn3)CC2)CCOCC1` (stereo not drawn) [Compound 81, 3-(6-((1-(4-methyl-1-(4-methyltetrahydro-2H-pyran-4-carbonyl)piperidin-4-yl)-1H-pyrazol-4-yl)methyl)-2-oxobenzo[cd]indol-1(2H)-yl)piperidine-2,6-dione] here?
**A.** < 1 nM

**Q.** How did the IC50 turn out when `CC1(n2cc(Cc3ccc4c5c(cccc35)C(=O)N4C3CCC(=O)NC3=O)cn2)CCN(C(=O)C(C)(C)C(F)(F)F)CC1` (stereo not drawn) [Compound 82, 3-(6-((1-(4-methyl-1-(3,3,3-trifluoro-2,2-dimethylpropanoyl)piperidin-4-yl)-1H-pyrazol-4-yl)methyl)-2-oxobenzo[cd]indol-1(2H)-yl)piperidine-2,6-dione] was run?
**A.** < 1 nM

**Q.** `CC1(C(=O)N2CCC(C)(n3cc(Cc4ccc5c6c(cccc46)C(=O)N5C4CCC(=O)NC4=O)cn3)CC2)CC1` (stereo not drawn) [Compound 83, 3-(6-((1-(4-methyl-1-(1-methylcyclopropane-1-carbonyl)piperidin-4-yl)-1H-pyrazol-4-yl)methyl)-2-oxobenzo[cd]indol-1(2H)-yl)piperidine-2,6-dione] was tested. Which IC50 did it give?
**A.** < 1 nM

**Q.** Which IC50 does the source give for `COC(C)(C)C(=O)N1CCC(C)(n2cc(Cc3ccc4c5c(cccc35)C(=O)N4C3CCC(=O)NC3=O)cn2)CC1` (stereo not drawn) [Compound 84, 3-(6-((1-(1-(2-methoxy-2-methylpropanoyl)-4-methylpiperidin-4-yl)-1H-pyrazol-4-yl)methyl)-2-oxobenzo[cd]indol-1(2H)-yl)piperidine-2,6-dione] here?
**A.** < 1 nM

**Q.** `COCC(C)(C)C(=O)N1CCC(C)(n2cc(Cc3ccc4c5c(cccc35)C(=O)N4C3CCC(=O)NC3=O)cn2)CC1` (stereo not drawn) [Compound 85, 3-(6-((1-(1-(3-methoxy-2,2-dimethylpropanoyl)-4-methylpiperidin-4-yl)-1H-pyrazol-4-yl)methyl)-2-oxobenzo[cd]indol-1(2H)-yl)piperidine-2,6-dione] was tested. Which IC50 did it give?
**A.** < 1 nM

**Q.** Which IC50 does the source give for `CC1(n2cc(Cc3ccc4c5c(cccc35)C(=O)N4C3CCC(=O)NC3=O)cn2)CCN(C(=O)C2(C#N)CCC2)CC1` (stereo not drawn) [Compound 86, 1-(4-(4-((1-(2,6-dioxopiperidin-3-yl)-2-oxo-1,2-dihydrobenzo[cd]indol-6-yl)methyl)-1H-pyrazol-1-yl)-4-methylpiperidine-1-carbonyl)cyclobutane-1-carbonitrile] here?
**A.** < 1 nM

**Q.** Which IC50 does the source give for `CC12CC(C(=O)N3CCC(C)(n4cc(Cc5ccc6c7c(cccc57)C(=O)N6C5CCC(=O)NC5=O)cn4)CC3)(CCO1)C2` (stereo not drawn) [Compound 88, 3-(6-((1-(4-methyl-1-(1-methyl-2-oxabicyclo[3.1.1]heptane-5-carbonyl)piperidin-4-yl)-1H-pyrazol-4-yl)methyl)-2-oxobenzo[cd]indol-1(2H)-yl)piperidine-2,6-dione] here?
**A.** < 1 nM

**Q.** With `CC1(n2cc(Cc3ccc4c5c(cccc35)C(=O)N4C3CCC(=O)NC3=O)cn2)CCN(C(=O)C23CCCC(C2)C3)CC1` (stereo not drawn) [Compound 89, 3-(6-((1-(1-(bicyclo[3.1.1]heptane-1-carbonyl)-4-methylpiperidin-4-yl)-1H-pyrazol-4-yl)methyl)-2-oxobenzo[cd]indol-1(2H)-yl)piperidine-2,6-dione] as the compound, how does the IC50 read?
**A.** < 1 nM

**Q.** With `CC1(n2cc(Cc3ccc4c5c(cccc35)C(=O)N4C3CCC(=O)NC3=O)cn2)CCN(C(=O)C23CC(CO2)C3)CC1` (stereo not drawn) [Compound 90, 3-(6-((1-(1-(2-oxabicyclo[2.1.1]hexane-1-carbonyl)-4-methylpiperidin-4-yl)-1H-pyrazol-4-yl)methyl)-2-oxobenzo[cd]indol-1(2H)-yl)piperidine-2,6-dione] as the compound, how does the IC50 read?
**A.** < 1 nM

**Q.** Which IC50 does the source give for `CC1(n2cc(Cc3ccc4c5c(cccc35)C(=O)N4C3CCC(=O)NC3=O)cn2)CCN(C(=O)C23CC(C2)C3)CC1` (stereo not drawn) [Compound 91, 3-(6-((1-(1-(bicyclo[1.1.1]pentane-1-carbonyl)-4-methylpiperidin-4-yl)-1H-pyrazol-4-yl)methyl)-2-oxobenzo[cd]indol-1(2H)-yl)piperidinc-2,6-dione] here?
**A.** < 1 nM

**Q.** How did the IC50 turn out when `CC1(C(=O)N2CCC(C)(n3cc(Cc4ccc5c6c(cccc46)C(=O)N5C4CCC(=O)NC4=O)cn3)CC2)CCC1` (stereo not drawn) [Compound 92, 3-(6-((1-(4-methyl-1-(1-methylcyclobutane-1-carbonyl)piperidin-4-yl)-1H-pyrazol-4-yl)methyl)-2-oxobenzo[cd]indol-1(2H)-yl)piperidine-2,6-dione] was run?
**A.** < 1 nM

**Q.** Which IC50 does the source give for `CC(C)(C)C(=O)N1CCC(C)(n2cc(Cc3ccc4c5c(cccc35)C(=O)N4C3CCC(=O)NC3=O)cn2)CC1` (stereo not drawn) [Compound 93] here?
**A.** < 1 nM

**Q.** With `CC1(C(=O)N2CCC(C)(n3cc(Cc4ccc5c6c(cccc46)C(=O)N5C4CCC(=O)NC4=O)cn3)CC2)COC1` (stereo not drawn) [Compound 94, 3-(6-((1-(4-methyl-1-(3-methyloxetane-3-carbonyl)piperidin-4-yl)-1H-pyrazol-4-yl)methyl)-2-oxobenzo[cd]indol-1(2H)-yl)piperidine-2,6-dione] as the compound, how does the IC50 read?
**A.** < 1 nM

Source: patent US20230082430A1 (C4 Therapeutics, Inc., priority 2019, published 2023)
